From US20250122171A1, “Substituted Amine Compounds, Compositions and Methods of Use” (Deep Apple Therapeutics, Inc., priority 2023, published 2025)
pIC50: −log10 of the molar value.

Test system: LAD-2 cells
Test: LAD2 Degranulation Assay (Protocol 2), β-hexosaminidase release
Assay type: cell-based
Conditions: Homo sapiens, 0.5 μM Cortistatin-14, 2 h preincubation, cells without SCF 18-24 hours, top concentration 3 μM
Protocol: LAD-2 cells were maintained at 37° C. with 5% CO2 and grown in complete StemPro-34 media supplemented with 1% L-Glutamate, 1% penicillin/streptomycin, and 250 ng/mL human SCF.
18-24 hours prior to experiment, LAD-2 cells were collected and transferred to growth media without SCF. On the day of experiment, cells were collected by centrifugation and seeded in 384-well assay plates, at 4,000 cells per well in 17 μl freshly made assay buffer (10 mM HEPES, 137 mM NaCl, 2.7 mM KCl, 1.8 mM CaCl2), 1.0 mM MgCl2, 5.6 mM glucose, 0.4 mM NaH2PO4, 0.04% BSA, pH=7.40). For dose-response assays, compounds solubilized in 100% DMSO at 30 mM were serially diluted (1:3) first in 100% DMSO, and 2 intermediate dilutions with assay buffer were used to establish a final top concentration of 3 μM (in assay plate). For single point assays, dilution of DMSO stocks to 250 nM (in assay plate) was performed in the same manner as described for dose-response assays. Final DMSO concentration was kept constant at 0.1% across plates for all assays. Cortistatin-14 at 30 mM stock concentration was solubilized in HBSS+0.1% BSA, stored at −20° C. in 5 μl aliquots and discarded after one freeze-thaw cycle. Final concentration of agonist used in both dose-response and single point assays was 0.5 μM, prepared in assay buffer.
Antagonist equilibrium was established with 2 h preincubation, followed by no wash, direct addition, and stimulation of agonist for 30 minutes at 37° C. For detection of β-hexosaminidase activity, assay plates were centrifuged and 5 μl of cell-free supernatant from each assay well was transferred to a black-walled black-bottomed 384-well plate. Substrate solution (1 mM 4-Methylumbelliferyl N-acetyl-β-D-glucosaminide in citrate buffer, pH=4.5, […]) was added to each well and plates were incubated for 1 hour at 37° C. The plate was read on an EnVision XCite plate reader for umbelliferone fluorescence intensity (λex=355 nm, λem=460 nm). Background-subtracted data was analyzed using either GraphPad Prism or a custom Python script to calculate IC50 using either Log[Antagonist] vs. response (4 parameter) nonlinear regression (dose-response assays) or % control β-hexosaminidase activity (single point assays).

pIC50	SMILES
7.51	C[C@@H](C(=O)Nc1cn2c(n1)CC[C@H]2c1cc(F)ccc1F)N1CCC(F)(F)[C@@H](c2ccc(=O)[nH]c2)C1 (single isomer, unassigned) [Compound 504]
< 5.52	C[C@@H](C(=O)Nc1cn2c(n1)CC[C@@H]2c1ccc(F)cc1F)N1CCC(F)(F)[C@@H](c2ccc(=O)[nH]c2)C1 (single isomer, unassigned) [Compound 505]
7.52	C[C@@H](C(=O)Nc1cn2c(n1)CC[C@H]2c1ccc(F)cc1F)N1CCC(F)(F)[C@@H](c2ccc(=O)[nH]c2)C1 (single isomer, unassigned) [Compound 506]
9.09	C[C@@H](C(=O)Nc1cc2n(n1)CC[C@@H]2c1cc(F)cc(F)c1)N1CCC(F)(F)[C@@H](c2ccc(=O)[nH]c2)C1 (single isomer, unassigned) [Compound 530]

Same assay, conditions: Homo sapiens, single point 250 nM, 0.5 μM Cortistatin-14, % control β-hexosaminidase activity

SMILES	activity at 0.25 µM
C[C@@H](C(=O)Nc1nc2n(n1)[C@@H](c1cc(F)cc(F)c1)CC2)N1CCC(F)(F)[C@@H](c2ccc(=O)[nH]c2)C1 (single isomer, unassigned) [Compound 501]	101%
C[C@@H](C(=O)Nc1nc2n(n1)[C@H](c1cc(F)cc(F)c1)CC2)N1CCC(F)(F)[C@@H](c2ccc(=O)[nH]c2)C1 (single isomer, unassigned) [Compound 502]	44%
C[C@@H](C(=O)Nc1cn2c(n1)CC[C@@H]2c1cc(F)ccc1F)N1CCC(F)(F)[C@@H](c2ccc(=O)[nH]c2)C1 (single isomer, unassigned) [Compound 503]	105%
C[C@@H](C(=O)Nc1cn2c(n1)CC[C@H]2c1cc(F)ccc1F)N1CCC(F)(F)[C@@H](c2ccc(=O)[nH]c2)C1 (single isomer, unassigned) [Compound 504]	13%
C[C@@H](C(=O)Nc1cn2c(n1)CC[C@@H]2c1ccc(F)cc1F)N1CCC(F)(F)[C@@H](c2ccc(=O)[nH]c2)C1 (single isomer, unassigned) [Compound 505]	106%
C[C@@H](C(=O)Nc1cn2c(n1)CCC[C@@H]2c1cc(F)cc(F)c1)N1CCC(F)(F)[C@@H](c2ccc(=O)[nH]c2)C1 (single isomer, unassigned) [Compound 507]	130%
C[C@@H](C(=O)Nc1cn2c(n1)CCC[C@H]2c1cc(F)cc(F)c1)N1CCC(F)(F)[C@@H](c2ccc(=O)[nH]c2)C1 (single isomer, unassigned) [Compound 508]	110%
C[C@@H](C(=O)Nc1cn2c(n1)CC[C@@H]2c1cc(F)cc(F)c1)N1CCC(F)(F)CC1 (single isomer, unassigned) [Compound 509]	11%
C[C@@H](C(=O)Nc1cn2c(n1)CC[C@H]2c1cc(F)cc(F)c1)N1CCC(F)(F)CC1 (single isomer, unassigned) [Compound 510]	87%
C[C@@H](C(=O)Nc1cn2c(n1)CC[C@@H]2c1cc(F)cc(F)c1)N1CCC(F)(F)[C@@H](c2c[nH]c(=O)c([C@H](N)C(F)F)c2)C1 (single isomer, unassigned) [Compound 536]	89%
C[C@@H](C(=O)Nc1cn2c(n1)CC[C@@H]2c1cc(F)cc(F)c1)N1CCC(F)(F)[C@H](c2c[nH]c(=O)c([C@H](N)C(F)F)c2)C1 (single isomer, unassigned) [Compound 537]	10%
C[C@@H](C(=O)Nc1cn2c(n1)CC[C@@H]2c1cc(F)cc(F)c1)N1CCC(F)(F)[C@@H](c2c[nH]c(=O)c([C@@H](N)C(F)F)c2)C1 (single isomer, unassigned) [Compound 538]	81%
C[C@@H](C(=O)Nc1cn2c(n1)CC[C@@H]2c1cc(F)cc(F)c1)N1CCC(F)(F)[C@H](c2c[nH]c(=O)c([C@@H](N)C(F)F)c2)C1 (single isomer, unassigned) [Compound 539]	12%
C[C@@H](C(=O)Nc1cn2c(n1)CC[C@@H]2c1cc(F)cc(F)c1)N1CCC(F)(F)[C@@H](c2c[nH]c(=O)c(C(N)C(F)(F)F)c2)C1 (single isomer, unassigned) [Compound 540]	124%
C[C@@H](C(=O)Nc1cn2c(n1)CC[C@@H]2c1cc(F)cc(F)c1)N1CCC(F)(F)[C@H](c2c[nH]c(=O)c(C(N)C(F)(F)F)c2)C1 (single isomer, unassigned) [Compound 541]	11%
C[C@@H](C(=O)Nc1cn2c(n1)CC[C@@H]2c1cc(F)cc(F)c1)N1CCC(F)(F)[C@@H](c2c[nH]c(=O)c(CN3CCC(F)(F)CC3)c2)C1 (single isomer, unassigned) [Compound 542]	126%
